Reference: ChEMBL document CHEMBL1137682, “Synthesis, characterization and structure-activity relationship analysis of novel depsides as potential antibacterials” (2009)
Converted amounts (≈) assume the structure as drawn.

Experiments:
Type in all cases: functional
[1] = tested on: Enterococcus faecalis; assay: microbe, parasite or virus in culture; settings: ATCC 9790, 24 h
[2] = tested on: Pseudomonas aeruginosa; assay: Antibacterial activity against sPseudomonas aeruginosa ATCC 13525 after 24 hrs by MTT assay; settings: ATCC 13525, 24 h
[3] = tested on: Staphylococcus aureus; assay: Antibacterial activity against Staphylococcus aureus ATCC 6538 after 24 hrs by MTT assay; settings: ATCC 6538, 24 h
[4] = tested on: Enterobacter cloacae; assay: Antibacterial activity against Enterobacter cloacae ATCC 13047 after 24 hrs by MTT assay; settings: ATCC 13047, 24 h
[5] = tested on: Escherichia coli; assay: Antibacterial activity against Escherichia coli ATCC 35218 after 24 hrs by MTT assay; settings: ATCC 35218, 24 h
[6] = tested on: Bacillus subtilis; assay: Antibacterial activity against Bacillus subtilis ATCC 6633 after 24 hrs by MTT assay; settings: ATCC 6633, 24 h

Structure (SMILES)	MIC [1]	MIC [2]	MIC [3]	MIC [4]	MIC [5]	MIC [6]
COC(=O)Cc1ccccc1OC(=O)Cc1ccc(OC)c(OC)c1	> 50 µg/mL	6.25 µg/mL (≈ 18.1 µM)	> 50 µg/mL	6.25 µg/mL (≈ 18.1 µM)	> 50 µg/mL	25 µg/mL (≈ 72.6 µM)
CCOc1ccc(CC(=O)Oc2ccccc2CC(=O)OC)cc1OCC	3.12 µg/mL (≈ 8.39 µM)	3.12 µg/mL (≈ 8.39 µM)	1.56 µg/mL (≈ 4.19 µM)	3.12 µg/mL (≈ 8.39 µM)	1.56 µg/mL (≈ 4.19 µM)	> 50 µg/mL
COC(=O)Cc1ccccc1OC(=O)c1cc(OC)cc(OC)c1	> 50 µg/mL	6.25 µg/mL (≈ 18.9 µM)	> 50 µg/mL	> 50 µg/mL	25 µg/mL (≈ 75.7 µM)	> 50 µg/mL
COC(=O)Cc1ccccc1OC(=O)Cc1ccc(F)cc1	12.5 µg/mL (≈ 41.3 µM)	25 µg/mL (≈ 82.7 µM)	12.5 µg/mL (≈ 41.3 µM)	6.25 µg/mL (≈ 20.7 µM)	25 µg/mL (≈ 82.7 µM)	6.25 µg/mL (≈ 20.7 µM)
COC(=O)Cc1ccccc1OC(=O)c1cccc([N+](=O)[O-])c1	1.56 µg/mL (≈ 4.95 µM)	6.25 µg/mL (≈ 19.8 µM)	1.56 µg/mL (≈ 4.95 µM)	12.5 µg/mL (≈ 39.6 µM)	3.12 µg/mL (≈ 9.91 µM)	0.78 µg/mL (≈ 2.47 µM)
CCOC(=O)Cc1ccccc1OC(=O)Cc1ccc(Cl)cc1	12.5 µg/mL (≈ 37.6 µM)	25 µg/mL (≈ 75.1 µM)	6.25 µg/mL (≈ 18.8 µM)	6.25 µg/mL (≈ 18.8 µM)	> 50 µg/mL	6.25 µg/mL (≈ 18.8 µM)
COC(=O)c1ccc(O)cc1 [METHYLPARABEN]	12.5 µg/mL (≈ 82.2 µM)	6.25 µg/mL (≈ 41.1 µM)	6.25 µg/mL (≈ 41.1 µM)	25 µg/mL (≈ 164 µM)	6.25 µg/mL (≈ 41.1 µM)	6.25 µg/mL (≈ 41.1 µM)
CCOC(=O)Cc1ccccc1OC(=O)Cc1ccc(OC)c(OC)c1	> 50 µg/mL	12.5 µg/mL (≈ 34.9 µM)	25 µg/mL (≈ 69.8 µM)	6.25 µg/mL (≈ 17.4 µM)	> 50 µg/mL	12.5 µg/mL (≈ 34.9 µM)
CC1(C)S[C@@H]2[C@H](NC(=O)Cc3ccccc3)C(=O)N2[C@H]1C(=O)O [PENICILLIN G]	1.56 µg/mL (≈ 4.67 µM)	6.25 µg/mL (≈ 18.7 µM)	1.56 µg/mL (≈ 4.67 µM)	3.12 µg/mL (≈ 9.35 µM)	6.25 µg/mL (≈ 18.7 µM)	1.56 µg/mL (≈ 4.67 µM)
CN[C@H](CC(C)C)C(=O)N[C@H]1C(=O)N[C@@H](CC(N)=O)C(=O)N[C@H]2C(=O)N[C@H]3C(=O)N[C@H](C(=O)N[C@H](C(=O)O)c4cc(O)cc(O)c4-c4cc3ccc4O)[C@H](O)c3ccc(c(Cl)c3)Oc3cc2cc(c3O[C@@H]2O[C@H](CO)[C@@H](O)[C@H](O)[C@H]2O[C@H]2C[C@](C)(N)[C@H](O)[C@H](C)O2)Oc2ccc(cc2Cl)[C@H]1O.Cl [VANCOMYCIN HYDROCHLORIDE]	1.56 µg/mL	> 50 µg/mL	0.78 µg/mL	> 50 µg/mL	> 50 µg/mL	0.39 µg/mL
CCOC(=O)Cc1ccccc1OC(=O)c1ccccc1Cl	> 50 µg/mL	25 µg/mL (≈ 78.4 µM)	6.25 µg/mL (≈ 19.6 µM)	> 50 µg/mL	6.25 µg/mL (≈ 19.6 µM)	> 50 µg/mL
CCOC(=O)Cc1ccccc1OC(=O)Cc1ccc(F)cc1	6.25 µg/mL (≈ 19.8 µM)	> 50 µg/mL	25 µg/mL (≈ 79 µM)	12.5 µg/mL (≈ 39.5 µM)	25 µg/mL (≈ 79 µM)	12.5 µg/mL (≈ 39.5 µM)
NC[C@H]1O[C@H](O[C@H]2[C@H](O)[C@@H](O[C@H]3O[C@H](CO)[C@@H](O)[C@H](N)[C@H]3O)[C@H](N)C[C@@H]2N)[C@H](N)[C@@H](O)[C@@H]1O [BEKANAMYCIN]	3.12 µg/mL (≈ 6.46 µM)	3.12 µg/mL (≈ 6.46 µM)	1.56 µg/mL (≈ 3.23 µM)	1.56 µg/mL (≈ 3.23 µM)	3.12 µg/mL (≈ 6.46 µM)	0.39 µg/mL (≈ 0.807 µM)
CCOC(=O)Cc1ccccc1OC(=O)c1ccc(C)cc1	> 50 µg/mL	12.5 µg/mL (≈ 41.9 µM)	> 50 µg/mL	6.25 µg/mL (≈ 20.9 µM)	3.12 µg/mL (≈ 10.5 µM)	25 µg/mL (≈ 83.8 µM)
CCOC(=O)Cc1ccccc1OC(=O)Cc1cccc(Cl)c1	6.25 µg/mL (≈ 18.8 µM)	> 50 µg/mL	6.25 µg/mL (≈ 18.8 µM)	25 µg/mL (≈ 75.1 µM)	6.25 µg/mL (≈ 18.8 µM)	3.12 µg/mL (≈ 9.39 µM)
CCOC(=O)Cc1ccccc1OC(=O)c1ccc(Cl)cc1	25 µg/mL (≈ 78.4 µM)	> 50 µg/mL	> 50 µg/mL	> 50 µg/mL	> 50 µg/mL	25 µg/mL (≈ 78.4 µM)

Structure (SMILES)	MIC [1]	MIC [2]	MIC [3]	MIC [4]	MIC [5]	MIC [6]
COC(=O)Cc1ccccc1O	12.5 µg/mL (≈ 75.2 µM)	25 µg/mL (≈ 150 µM)	6.25 µg/mL (≈ 37.6 µM)	6.25 µg/mL (≈ 37.6 µM)	12.5 µg/mL (≈ 75.2 µM)	12.5 µg/mL (≈ 75.2 µM)
COC(=O)Cc1ccccc1OC(=O)c1ccc(C)cc1	> 50 µg/mL	12.5 µg/mL (≈ 44 µM)	25 µg/mL (≈ 87.9 µM)	6.25 µg/mL (≈ 22 µM)	3.12 µg/mL (≈ 11 µM)	12.5 µg/mL (≈ 44 µM)
CCOC(=O)Cc1ccccc1OC(=O)c1cccc([N+](=O)[O-])c1	1.56 µg/mL (≈ 4.74 µM)	6.25 µg/mL (≈ 19 µM)	3.12 µg/mL (≈ 9.49 µM)	6.25 µg/mL (≈ 19 µM)	3.12 µg/mL (≈ 9.49 µM)	0.78 µg/mL (≈ 2.37 µM)
COC(=O)Cc1ccccc1OC(=O)c1ccccc1Cl	25 µg/mL (≈ 82 µM)	> 50 µg/mL	3.12 µg/mL (≈ 10.3 µM)	> 50 µg/mL	25 µg/mL (≈ 82 µM)	> 50 µg/mL
COC(=O)Cc1ccccc1OC(=O)Cc1ccc(Br)cc1	6.25 µg/mL (≈ 17.2 µM)	25 µg/mL (≈ 68.8 µM)	6.25 µg/mL (≈ 17.2 µM)	3.12 µg/mL (≈ 8.6 µM)	> 50 µg/mL	6.25 µg/mL (≈ 17.2 µM)
CCOC(=O)Cc1ccccc1OC(=O)Cc1cccc(Br)c1	> 50 µg/mL	25 µg/mL (≈ 66.3 µM)	> 50 µg/mL	> 50 µg/mL	6.25 µg/mL (≈ 16.6 µM)	1.56 µg/mL (≈ 4.14 µM)
CCOC(=O)Cc1ccccc1OC(=O)Cc1ccc(OCC)c(OCC)c1	1.56 µg/mL (≈ 4.04 µM)	3.12 µg/mL (≈ 8.09 µM)	3.12 µg/mL (≈ 8.09 µM)	3.12 µg/mL (≈ 8.09 µM)	1.56 µg/mL (≈ 4.04 µM)	12.5 µg/mL (≈ 32.3 µM)
COC(=O)Cc1ccccc1OC(=O)c1ccc(Cl)cc1	12.5 µg/mL (≈ 41 µM)	25 µg/mL (≈ 82 µM)	> 50 µg/mL	25 µg/mL (≈ 82 µM)	> 50 µg/mL	25 µg/mL (≈ 82 µM)
CCOC(=O)Cc1ccccc1O	25 µg/mL (≈ 139 µM)	12.5 µg/mL (≈ 69.4 µM)	12.5 µg/mL (≈ 69.4 µM)	12.5 µg/mL (≈ 69.4 µM)	25 µg/mL (≈ 139 µM)	6.25 µg/mL (≈ 34.7 µM)
COC(=O)Cc1ccccc1OC(=O)Cc1ccc(Cl)cc1	25 µg/mL (≈ 78.4 µM)	> 50 µg/mL	3.12 µg/mL (≈ 9.8 µM)	12.5 µg/mL (≈ 39.2 µM)	6.25 µg/mL (≈ 19.6 µM)	12.5 µg/mL (≈ 39.2 µM)
COC(=O)Cc1ccccc1OC(=O)Cc1cccc(Br)c1	25 µg/mL (≈ 68.8 µM)	25 µg/mL (≈ 68.8 µM)	> 50 µg/mL	> 50 µg/mL	6.25 µg/mL (≈ 17.2 µM)	1.56 µg/mL (≈ 4.3 µM)
CCOC(=O)Cc1ccccc1OC(=O)c1cc(OC)cc(OC)c1	25 µg/mL (≈ 72.6 µM)	6.25 µg/mL (≈ 18.1 µM)	> 50 µg/mL	25 µg/mL (≈ 72.6 µM)	> 50 µg/mL	> 50 µg/mL
CCOC(=O)Cc1ccccc1OC(=O)Cc1cccc(OC)c1	12.5 µg/mL (≈ 38.1 µM)	6.25 µg/mL (≈ 19 µM)	> 50 µg/mL	> 50 µg/mL	25 µg/mL (≈ 76.1 µM)	> 50 µg/mL
COC(=O)Cc1ccccc1OC(=O)Cc1cccc(OC)c1	> 50 µg/mL	6.25 µg/mL (≈ 19.9 µM)	25 µg/mL (≈ 79.5 µM)	> 50 µg/mL	> 50 µg/mL	> 50 µg/mL
CCOC(=O)Cc1ccccc1OC(=O)Cc1ccc(Br)cc1	> 50 µg/mL	25 µg/mL (≈ 66.3 µM)	12.5 µg/mL (≈ 33.1 µM)	3.12 µg/mL (≈ 8.28 µM)	> 50 µg/mL	12.5 µg/mL (≈ 33.1 µM)
CN(C)[C@@H]1C(O)=C(C(N)=O)C(=O)[C@@]2(O)C(O)=C3C(=O)c4c(O)cccc4[C@@](C)(O)[C@H]3C[C@@H]12 [TETRACYCLINE]	0.78 µg/mL (≈ 1.76 µM)	1.56 µg/mL (≈ 3.51 µM)	1.56 µg/mL (≈ 3.51 µM)	1.56 µg/mL (≈ 3.51 µM)	6.25 µg/mL (≈ 14.1 µM)	1.56 µg/mL (≈ 3.51 µM)
